Source: patent US11975095B2, “Callus lysate comprising high content of callus metabolite and preparation method thereof” (BIOSPECTRUM, INC., priority 2020, dated 2024)

Assay: Anti-oxidation: DPPH free radical scavenging
Details: positive control at 400 μg/ml
Description: The antioxidant activity was evaluated by measuring the ability of scavenging a free radical, DPPH (1,1-diphenyl-2-picrylhydrazyl). DPPH, a radical with a color, was used to directly determine the radical scavenging ability of the sample.
50 μl of each sample of Examples 1 to 13 and Comparative Examples 1 to 5 was mixed with 1 ml of a 100 μM DPPH solution. The resultant mixture was subjected to reaction and incubation at 20° C. (room temperature) at 30 minutes. Then, the amount of the remaining DPPH was determined through the absorbance measurement at 517 nm.
Upon completion of the reaction, the free radical scavenging activity (%) of the sample was calculated according to Equation 3 below. In this regard, the positive control was 400 μg/ml of ascorbic acid, and the blank was purified water. Radical Scavenging Ability (%)={1−(absorbance of sample-added group/absorbance of sample-free group)×100} [Equation 3]

O=C1O[C@H]([C@@H](O)CO)C(O)=C1O [Ascorbic acid]
Free radical scavenging ability: 80.7%
